Some results are limits rather than exact numbers.

Test [1] concerns T. cruzi (Tulahuen strain, DTU VI) expressing beta-galactosidase. Nature of the test: T. cruzi growth inhibition assay. In kind it is cell-based, Trypanosoma cruzi. To be noted: read-out: T. cruzi EC50; averages of triplicate data; 3T3 host cells, 6 days.
In test [2] the test system is human hepatocellular cells (HepG2). Nature of the test: Mammalian cell growth inhibition assay, HepG2. It is filed as cell-based. To be noted: for EC50: HepG2, 48 h, read-out: Hep G2 EC50.
Test [3] has as its system human lymphocytic cells (CRL-8155). The test can be described thus: Mammalian cell growth inhibition assay, CRL-8155. It is filed as cell-based. To be noted: for EC50: CRL8155, 48 h, read-out: CLR‐8155 EC50.

With `Cc1ccc2nc(-c3ccc(F)c(F)c3)c(CN3CCN(C4CCCCC4)CC3)n2c1` [Compound 37], in test [1], the EC50 worked out at 2.6 µM.

For `Cc1ccc2nc(-c3ccc(F)c(F)c3)c(CN3CCC(Cc4ccccc4)CC3)n2c1` [Compound 39], the EC50 in test [1] was 1.6 µM; in test [2] it was over 50 µM; in test [3], over 50 µM.

For the molecule `CCN(CC)CCCC(C)Nc1c2ccc(Cl)cc2nc2ccc(OC)cc12` (centres unmarked) [Quinacrine], the figures for the EC50 in test [2] and in test [3] were 14.3 µM and 5.47 µM, respectively. In addition, the EC90 in test [2] (HepG2, read-out: Hep G2 EC90 (control compound)) is 18.7 µM; in test [3] (CRL8155, read-out: CRL‐8155 EC90 (control compound)) it was 15.7 µM.
